Results: ChEMBL document CHEMBL1143380, “N-[6-amino-2-(heteroaryl)pyrimidin-4-yl]acetamides as A2A receptor antagonists with improved drug like properties and in vivo efficacy” (J Med Chem, 2009)
Converted amounts (≈) assume the structure as drawn.

What was measured:
[1] = Plasma concentration in rat at 10 mg/kg, po after 4 hrs; format: ADME, organism-based; parameters: dose 10 mg/kg, route oral
[2] = molecular target: Cytochrome P450 3A4 (Homo sapiens, UniProt P08684); experiment: Inhibition of CYP3A4; format: ADME
Chain of Cytochrome P450 3A4 (P08684 whole entry): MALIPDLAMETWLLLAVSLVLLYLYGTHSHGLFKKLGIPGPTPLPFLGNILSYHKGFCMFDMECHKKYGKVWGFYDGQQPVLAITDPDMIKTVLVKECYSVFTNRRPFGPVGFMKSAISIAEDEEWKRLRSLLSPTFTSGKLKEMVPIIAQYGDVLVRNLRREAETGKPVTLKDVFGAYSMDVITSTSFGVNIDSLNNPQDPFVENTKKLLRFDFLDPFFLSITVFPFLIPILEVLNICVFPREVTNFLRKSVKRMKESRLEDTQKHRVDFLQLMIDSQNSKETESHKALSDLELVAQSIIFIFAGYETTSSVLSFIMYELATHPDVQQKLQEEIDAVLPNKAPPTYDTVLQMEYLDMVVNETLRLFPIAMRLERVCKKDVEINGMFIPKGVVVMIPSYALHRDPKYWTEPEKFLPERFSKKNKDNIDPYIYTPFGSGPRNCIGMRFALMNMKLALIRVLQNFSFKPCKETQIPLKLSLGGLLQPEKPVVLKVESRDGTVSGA

[3] = Drug level in rat brain at 10 mg/kg, po after 1 hr; format: ADME, organism-based; parameters: dose 10 mg/kg, route oral; conditions: read-out: Drug uptake
[4] = molecular target: T1, Adenosine receptor A1 (Homo sapiens, UniProt P30542); experiment: Displacement of [3H]DPCPX from human adenosine A1 receptor expressed in HEK293 cells; format: cell-based
T1 sequence (P30542 whole entry): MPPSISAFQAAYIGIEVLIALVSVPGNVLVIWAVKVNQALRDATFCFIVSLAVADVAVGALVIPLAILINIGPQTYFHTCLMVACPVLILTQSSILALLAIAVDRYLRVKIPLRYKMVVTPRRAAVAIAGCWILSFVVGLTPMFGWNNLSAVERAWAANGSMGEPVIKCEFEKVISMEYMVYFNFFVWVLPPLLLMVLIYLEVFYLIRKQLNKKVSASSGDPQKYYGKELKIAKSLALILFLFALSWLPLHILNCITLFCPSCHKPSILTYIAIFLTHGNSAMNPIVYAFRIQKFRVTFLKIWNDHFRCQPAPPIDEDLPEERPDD

[5] = Plasma concentration in rat at 3 mg/kg, po after 2 hrs; format: ADME, organism-based; parameters: dose 3 mg/kg, route oral
[6] = system: Rattus norvegicus; experiment: Potentiation of […]-induced rotational behavior in unilateral 6-hydroxydopamine lesioned po dosed rat after 5 hrs; format: ADME, organism-based; conditions: in vivo
[7] = Tmax in rat at 10 mg/kg, po; format: ADME, organism-based; parameters: dose 10 mg/kg, route oral; conditions: in vivo
[8] = molecular target: T2, Adenosine receptor A2a (Homo sapiens, UniProt P29274); experiment: Antagonist activity at human adenosine A2A receptor assessed as inhibition of CGS-21680-stimulated cAMP production; format: functional
T2 sequence (P29274 whole entry): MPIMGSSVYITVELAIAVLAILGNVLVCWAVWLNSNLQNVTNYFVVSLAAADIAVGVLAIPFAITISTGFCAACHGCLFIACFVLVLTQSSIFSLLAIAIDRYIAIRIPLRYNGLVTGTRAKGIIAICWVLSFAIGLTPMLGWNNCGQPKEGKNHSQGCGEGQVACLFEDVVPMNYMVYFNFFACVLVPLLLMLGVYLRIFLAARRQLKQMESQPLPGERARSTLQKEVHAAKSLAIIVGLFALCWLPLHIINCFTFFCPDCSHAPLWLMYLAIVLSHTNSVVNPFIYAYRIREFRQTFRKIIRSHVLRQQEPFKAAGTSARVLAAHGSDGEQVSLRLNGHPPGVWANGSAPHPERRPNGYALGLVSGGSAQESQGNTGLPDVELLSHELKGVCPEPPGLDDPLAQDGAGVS

[9] = Plasma concentration in rat at 10 mg/kg, po after 2 hrs; format: ADME, organism-based; parameters: dose 10 mg/kg, route oral
[10] = Drug level in rat brain at 10 mg/kg, po after 2 hrs; format: ADME, organism-based; parameters: dose 10 mg/kg, route oral; conditions: read-out: Drug uptake
[11] = Drug level in rat brain at 3 mg/kg, po after 2 hrs; format: ADME, organism-based; parameters: dose 3 mg/kg, route oral; conditions: read-out: Drug uptake
[12] = Permeability across human Caco-2 cells; format: ADME, cell-based; conditions: read-out: permeability
[13] = molecular target: T3, Cytochrome P450 1A2 (Homo sapiens, UniProt P05177); experiment: Inhibition of CYP1A2; format: ADME
T3 sequence (P05177 whole entry): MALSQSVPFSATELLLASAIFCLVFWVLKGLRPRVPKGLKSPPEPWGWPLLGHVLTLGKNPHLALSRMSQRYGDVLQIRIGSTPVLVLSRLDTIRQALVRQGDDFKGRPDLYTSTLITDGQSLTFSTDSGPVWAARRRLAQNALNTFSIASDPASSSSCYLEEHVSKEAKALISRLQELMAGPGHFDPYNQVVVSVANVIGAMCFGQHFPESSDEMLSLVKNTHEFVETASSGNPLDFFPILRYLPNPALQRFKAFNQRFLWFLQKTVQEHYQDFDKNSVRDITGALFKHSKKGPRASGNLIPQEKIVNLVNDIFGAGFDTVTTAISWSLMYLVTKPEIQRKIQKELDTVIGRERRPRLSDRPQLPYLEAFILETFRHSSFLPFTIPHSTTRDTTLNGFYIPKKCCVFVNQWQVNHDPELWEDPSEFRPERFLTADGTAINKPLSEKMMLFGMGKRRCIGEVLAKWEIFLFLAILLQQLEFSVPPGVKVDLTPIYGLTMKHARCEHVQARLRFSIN

[14] = Ratio of drug level in brain to plasma in rat at 30 mg/kg, po after 2 hrs; format: ADME, organism-based; parameters: dose 30 mg/kg, route oral; conditions: brain and plasma
[15] = system: Rattus norvegicus; experiment: Inhibition of haloperidol-induced catalepsy in rat assessed as reduction in descent latency at 30 mg/kg, po after 2 hrs; format: organism-based; parameters: dose 30 mg/kg, route oral; conditions: in vivo
[16] = molecular target: Adenosine receptor A2a (Rattus norvegicus, UniProt P30543); experiment: Displacement of [3H]ZM241385 from rat adenosine A2A receptor expressed in CHO cells; format: cell-based
Chain of Adenosine receptor A2a (Rattus norvegicus, UniProt P30543) (P30543 whole entry): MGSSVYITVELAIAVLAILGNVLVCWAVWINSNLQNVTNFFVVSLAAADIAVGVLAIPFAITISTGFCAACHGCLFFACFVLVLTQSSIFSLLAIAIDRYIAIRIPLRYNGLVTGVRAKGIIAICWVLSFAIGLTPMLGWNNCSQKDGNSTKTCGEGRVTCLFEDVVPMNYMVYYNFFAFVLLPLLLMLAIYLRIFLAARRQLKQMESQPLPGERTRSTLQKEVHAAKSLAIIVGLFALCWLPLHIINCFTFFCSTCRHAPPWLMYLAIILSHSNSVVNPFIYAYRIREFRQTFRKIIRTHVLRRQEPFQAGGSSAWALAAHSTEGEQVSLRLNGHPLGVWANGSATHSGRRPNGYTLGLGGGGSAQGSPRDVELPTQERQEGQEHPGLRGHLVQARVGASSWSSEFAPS

[17] = molecular target: Cytochrome P450 2C9 (Homo sapiens, UniProt P11712); experiment: Inhibition of CYP2C9; format: ADME
Chain of Cytochrome P450 2C9 (P11712 whole entry): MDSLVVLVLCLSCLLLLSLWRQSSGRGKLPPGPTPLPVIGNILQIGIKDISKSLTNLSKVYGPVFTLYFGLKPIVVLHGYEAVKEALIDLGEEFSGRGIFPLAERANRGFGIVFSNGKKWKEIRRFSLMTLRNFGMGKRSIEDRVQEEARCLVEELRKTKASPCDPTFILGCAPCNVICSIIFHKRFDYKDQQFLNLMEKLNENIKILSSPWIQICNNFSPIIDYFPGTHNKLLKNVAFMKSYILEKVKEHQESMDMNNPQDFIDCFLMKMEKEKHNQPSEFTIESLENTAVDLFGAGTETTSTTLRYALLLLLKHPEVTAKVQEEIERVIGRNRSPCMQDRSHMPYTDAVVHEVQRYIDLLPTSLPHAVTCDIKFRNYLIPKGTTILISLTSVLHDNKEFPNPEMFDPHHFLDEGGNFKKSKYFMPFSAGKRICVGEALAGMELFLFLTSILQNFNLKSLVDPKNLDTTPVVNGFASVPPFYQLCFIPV

[18] = molecular target: T4, Adenosine receptor A3 (Homo sapiens, UniProt P0DMS8); experiment: Inhibition of human adenosine A3 receptor
T4 sequence (P0DMS8 whole entry): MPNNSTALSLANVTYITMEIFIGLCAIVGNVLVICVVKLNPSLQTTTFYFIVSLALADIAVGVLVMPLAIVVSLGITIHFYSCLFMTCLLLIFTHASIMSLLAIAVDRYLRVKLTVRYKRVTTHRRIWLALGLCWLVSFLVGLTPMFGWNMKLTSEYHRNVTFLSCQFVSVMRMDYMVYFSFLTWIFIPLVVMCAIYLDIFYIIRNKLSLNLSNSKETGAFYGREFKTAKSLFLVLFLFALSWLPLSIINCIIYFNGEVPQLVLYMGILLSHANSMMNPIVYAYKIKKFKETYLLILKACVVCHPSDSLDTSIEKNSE

[19] = Ratio of drug level in brain to plasma in rat at 10 mg/kg, po after 4 hrs; format: ADME, organism-based; parameters: dose 10 mg/kg, route oral; conditions: brain and plasma, read-out: BPR
[20] = molecular target: T5, Adenosine receptor A2b (Homo sapiens, UniProt P29275); experiment: Inhibition of human adenosine A2B receptor
T5 sequence (P29275 whole entry): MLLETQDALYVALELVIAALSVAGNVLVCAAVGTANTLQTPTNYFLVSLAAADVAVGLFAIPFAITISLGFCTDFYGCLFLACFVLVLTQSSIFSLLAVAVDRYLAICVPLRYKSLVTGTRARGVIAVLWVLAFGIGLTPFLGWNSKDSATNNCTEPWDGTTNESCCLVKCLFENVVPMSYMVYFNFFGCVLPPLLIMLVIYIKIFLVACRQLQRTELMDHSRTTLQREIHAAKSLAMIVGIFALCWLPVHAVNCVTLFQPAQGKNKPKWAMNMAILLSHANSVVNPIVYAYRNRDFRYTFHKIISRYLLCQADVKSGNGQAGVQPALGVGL

[21] = Plasma concentration in rat at 10 mg/kg, po after 1 hr; format: ADME, organism-based; parameters: dose 10 mg/kg, route oral
[22] = molecular target: Cytochrome P450 2C19 (Homo sapiens, UniProt P33261); experiment: Inhibition of CYP2C19; format: ADME
Chain of Cytochrome P450 2C19 (P33261 whole entry): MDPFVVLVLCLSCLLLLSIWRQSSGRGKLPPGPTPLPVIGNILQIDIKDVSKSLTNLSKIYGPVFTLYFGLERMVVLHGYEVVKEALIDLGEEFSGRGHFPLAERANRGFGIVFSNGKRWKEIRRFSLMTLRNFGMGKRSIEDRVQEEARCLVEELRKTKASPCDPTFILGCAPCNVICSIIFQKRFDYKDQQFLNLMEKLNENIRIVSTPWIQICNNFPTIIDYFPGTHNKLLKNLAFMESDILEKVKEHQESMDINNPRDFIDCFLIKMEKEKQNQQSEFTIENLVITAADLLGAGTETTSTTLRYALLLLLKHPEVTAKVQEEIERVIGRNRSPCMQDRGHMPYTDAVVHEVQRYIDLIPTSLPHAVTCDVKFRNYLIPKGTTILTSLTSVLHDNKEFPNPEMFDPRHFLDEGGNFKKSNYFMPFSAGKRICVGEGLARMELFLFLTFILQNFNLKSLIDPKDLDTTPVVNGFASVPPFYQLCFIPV

[23] = molecular target: T2, Adenosine receptor A2a; experiment: Displacement of [3H]ZM241385 from human adenosine A2A receptor expressed in HEK293 cells; format: cell-based
[24] = Lipophilicity, log D of the compound; format: physicochemical; conditions: octanol/water
[25] = system: Rattus norvegicus; experiment: Inhibition of haloperidol-induced catalepsy in rat assessed as reduction in descent latency at 10 mg/kg, po after 2 hrs; format: organism-based; parameters: dose 10 mg/kg, route oral; conditions: in vivo
[26] = Plasma concentration in rat at 30 mg/kg, po after 2 hrs; format: ADME, organism-based; parameters: dose 30 mg/kg, route oral
[27] = molecular target: hERG (KCNH2) (Homo sapiens, UniProt Q12809); experiment: Inhibition of human ERG at 10 uM by patch clamp technique
Chain of hERG (KCNH2) (Q12809 whole entry): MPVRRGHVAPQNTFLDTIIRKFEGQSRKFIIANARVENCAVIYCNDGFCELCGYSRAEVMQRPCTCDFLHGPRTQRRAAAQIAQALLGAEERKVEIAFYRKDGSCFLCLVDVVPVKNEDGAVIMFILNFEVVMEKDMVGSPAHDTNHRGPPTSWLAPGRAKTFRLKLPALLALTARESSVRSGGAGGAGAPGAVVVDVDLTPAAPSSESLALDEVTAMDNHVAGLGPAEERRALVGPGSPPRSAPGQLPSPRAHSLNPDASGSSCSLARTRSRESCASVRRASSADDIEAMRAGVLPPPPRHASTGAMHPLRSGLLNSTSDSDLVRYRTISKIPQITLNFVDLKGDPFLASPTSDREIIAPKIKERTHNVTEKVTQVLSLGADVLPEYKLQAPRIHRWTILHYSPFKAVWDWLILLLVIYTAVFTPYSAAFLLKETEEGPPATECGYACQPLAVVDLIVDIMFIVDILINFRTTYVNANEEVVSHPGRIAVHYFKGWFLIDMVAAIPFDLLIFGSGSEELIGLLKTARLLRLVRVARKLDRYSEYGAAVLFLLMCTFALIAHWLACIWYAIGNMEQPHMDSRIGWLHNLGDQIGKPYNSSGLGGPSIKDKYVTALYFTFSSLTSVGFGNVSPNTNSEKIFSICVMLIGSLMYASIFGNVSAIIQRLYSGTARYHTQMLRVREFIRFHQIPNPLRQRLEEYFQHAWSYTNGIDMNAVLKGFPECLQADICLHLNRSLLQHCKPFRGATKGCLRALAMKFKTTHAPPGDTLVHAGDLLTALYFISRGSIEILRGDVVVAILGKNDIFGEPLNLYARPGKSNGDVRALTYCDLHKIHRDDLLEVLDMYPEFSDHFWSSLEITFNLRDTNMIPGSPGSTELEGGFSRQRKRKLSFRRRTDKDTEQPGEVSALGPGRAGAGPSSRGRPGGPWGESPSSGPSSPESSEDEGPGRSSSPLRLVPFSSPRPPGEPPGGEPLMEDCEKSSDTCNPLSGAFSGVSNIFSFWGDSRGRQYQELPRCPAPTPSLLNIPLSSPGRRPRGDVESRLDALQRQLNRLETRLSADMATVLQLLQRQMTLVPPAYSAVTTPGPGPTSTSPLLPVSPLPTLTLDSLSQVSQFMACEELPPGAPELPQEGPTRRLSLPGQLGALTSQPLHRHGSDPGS

[28] = Ratio of drug level in brain to plasma in rat at 10 mg/kg, po after 1 hr; format: ADME, organism-based; parameters: dose 10 mg/kg, route oral; conditions: brain and plasma, read-out: BPR
[29] = Solubility at pH 7.4; format: physicochemical; conditions: buffer
[30] = Drug level in rat brain at 10 mg/kg, po after 4 hrs; format: ADME, organism-based; parameters: dose 10 mg/kg, route oral; conditions: read-out: Drug uptake
[31] = Ratio of drug level in brain to plasma in rat at 3 mg/kg, po after 2 hrs; format: ADME, organism-based; parameters: dose 3 mg/kg, route oral; conditions: brain and plasma
[32] = Drug level in rat brain at 30 mg/kg, po after 2 hrs; format: ADME, organism-based; parameters: dose 30 mg/kg, route oral; conditions: read-out: Drug uptake
[33] = molecular target: Cytochrome P450 2D6 (Homo sapiens, UniProt P10635); experiment: Inhibition of CYP2D6; format: ADME
Chain of Cytochrome P450 2D6 (P10635 whole entry): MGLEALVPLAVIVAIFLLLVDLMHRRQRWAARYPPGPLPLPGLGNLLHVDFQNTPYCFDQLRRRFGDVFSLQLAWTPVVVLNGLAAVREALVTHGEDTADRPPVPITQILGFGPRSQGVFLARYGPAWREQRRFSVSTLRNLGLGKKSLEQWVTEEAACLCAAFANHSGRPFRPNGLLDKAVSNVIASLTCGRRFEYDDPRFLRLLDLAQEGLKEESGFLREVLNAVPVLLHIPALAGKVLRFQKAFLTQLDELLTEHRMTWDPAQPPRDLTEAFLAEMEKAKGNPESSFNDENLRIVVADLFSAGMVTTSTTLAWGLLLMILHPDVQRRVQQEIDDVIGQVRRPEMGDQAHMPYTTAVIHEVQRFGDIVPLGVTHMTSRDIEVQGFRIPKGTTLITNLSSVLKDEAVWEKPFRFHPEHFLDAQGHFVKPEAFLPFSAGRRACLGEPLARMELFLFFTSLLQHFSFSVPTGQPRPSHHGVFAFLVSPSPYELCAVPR

[34] = system: Caco-2; experiment: Ratio of permeability from apical to basolateral side over basolateral to apical side in human Caco-2 cells; format: ADME, cell-based
[35] = Ratio of drug level in brain to plasma in rat at 10 mg/kg, po after 2 hrs; format: ADME, organism-based; parameters: dose 10 mg/kg, route oral; conditions: brain and plasma

concentration at 4 h [1]: 333 ng/mL
IC50 [2]: > 50000 nM
concentration at 1 h [3]: 863 ng/g
Ki [4]: 162 nM
concentration at 2 h [5]: 98 ng/mL
Activity [6]: Dose-dependent effect
Tmax [7]: 54 min
IC50 [8]: 85 nM
concentration at 2 h [9]: 1060 ng/mL
concentration at 2 h [10]: 488 ng/g
concentration at 2 h [11]: 34 ng/g
Papp [12]: 70 ×10⁻⁶ cm/s
IC50 [13]: 11000 nM
Kp at 2 h [14]: 0.45
Ki [16]: 48 nM
IC50 [17]: > 50000 nM
Ki [18]: 19 nM
Kp at 4 h [19]: 0.33
Ki [20]: 145 nM
concentration at 1 h [21]: 1600 ng/mL
IC50 [22]: > 50000 nM
Ki [23]: 4.7 nM
logD [24]: 2.2
concentration at 2 h [26]: 4640 ng/mL
Kp at 1 h [28]: 0.51
solubility [29]: 1000 µg/mL (≈ 2900 µM)
concentration at 4 h [30]: 116 ng/g
Kp at 2 h [31]: 0.37
concentration at 2 h [32]: 2020 ng/g
IC50 [33]: > 50000 nM
Ratio [34]: 0.7
Kp at 2 h [35]: 0.46
SMILES: COC[C@H]1CCCN1c1cc(NC(C)=O)nc(-n2nc(C)cc2C)n1
Activity [15]: Active
Activity [25]: Active
inhibition at 10 µM [27]: 19%
